Entries after “also recorded” stand apart in the source; their conditions may differ. Like-named read-outs stand apart in the source and are kept apart here.
Key:
[1] = cited from earlier work
[2] = format: in vivo
Method: FIG. […]
(§1) Weight loss was calculated as percent change in mean group body weight, using the formula: ((W−W0)/W0)×100 • where ‘W’ represents mean body weight of the treated group at a particular day, and ‘W0’ represents mean body weight of the same group at start of treatment. Maximum weight loss was also calculated using the above formula, giving the maximum percentage of body weight lost at any time in the entire experiment for a particular group. Treatment efficacy was assessed by tumor growth inhibition. Tumour volumes of treated groups were given as percentages of tumor volumes of the control groups (% T/C), using the formula: 100×((T−T0)/(C−C0)) • where ‘T’ represents mean tumor volume of a treated group on a specific day during the experiment, ‘T0’ represented mean tumor volume of the same group on the first day of treatment, C represents mean tumor volume of a control group on a particular day of the experiment, and C0 represents mean tumor volume of the same group on the first day of treatment.

H460a NSCLC xenograft = test: Tumor growth inhibition in H460a NSCLC xenograft model; format: in vivo, athymic nude mice
Method: (§2) Mice were implanted with H460a NSCLC cells. […] Tumor size was measured 3 times per week. Values are means, n=10.
as §2
(§3) H460a cells (provided by Dr Jack Roth, MD, Anderson) were grown in Dulbecco's Modified Eagle Media (DMEM) supplemented with 10% Foetal Bovine Serum (FBS). A549 cells (American Type Culture Collection [Manassas, Va.] were grown in Roswell Park Memorial Institute medium (RPMI) 1640+10% FBS. The cell concentrations for implant were 1×10^7 cells/0.2 mL for H460a and 7.5×10^6 cells/0.2 mL for A549.
(§4) Cells were suspended in phosphate-buffered saline, and implanted subcutaneously in the right flank of each mouse. Once palpable tumours were established, animals were randomised so that all groups had similar starting mean tumour volumes of 100-150 mm^3. Tumour measurements and mouse weights were taken three times per week. Animals were individually monitored throughout the experiment.
All groups were treated daily for 3 weeks. […]
Weight loss was calculated as percent change in mean group body weight, using the formula: ((W−W0)/W0)×100 • where ‘W’ represents mean body weight of the treated group at a particular day, and ‘W0’ represents mean body weight of the same group at start of treatment. Maximum weight loss was also calculated using the above formula, giving the maximum percentage of body weight lost at any time in the entire experiment for a particular group. Treatment efficacy was assessed by tumor growth inhibition. […]
(§5) Tumor growth inhibition was calculated using the formula: 100−% T/C
(§6) Tumor volume (mm^3) was calculated using the ellipsoid formula: (Dx(d^2))/2 • where ‘D’ represents the large diameter of the tumor, and ‘d’ represents the small diameter. In some cases, tumor regression and/or percentage change in tumor volume was calculated using the formula: ((T−T0)/T0)×100 • where ‘T’ represents mean tumor volume of the treated group at a particular day, and ‘T0’ represents mean tumor volume of the same treated group at the start of treatment.

A549 NSCLC xenograft = format: in vivo
Method: Mice were implanted with A549 NSCLC cells. […] Tumor size was measured 3 times per week. Values are means, n=10.
as §3, §4
All groups were treated daily for 3 weeks.
All groups were treated every 6 days for 3 weeks (a total of three injections).
as §1, §5, §6

[3] = Pathology/necropsy and tumor immunohistochemistry in treated xenograft mice
From the text: At necropsy, skin samples were fixed in 10% buffered formalin, embedded in paraffin, sectioned at 5μ and stained with haematoxylin and eosin.
Five mice per treatment from all remaining groups were given a full necropsy at the end of the study.
Tumor samples were fixed by immersion in 10% zinc formalin then processed in a Tissue-Tek® VIP (Sakura) and embedded in paraffin. Sections for immunohistochemistry were cut at 5μ. Pre-immune rabbit or goat serum (Dako Ltd) was used as the negative control. Sections were immersed in Target Retrieval Solution (Dako Ltd) and heated to 94° C. in a steamer (Black & Decker) for 20 minutes. Endogenous peroxidase activity was quenched with 6% H2O2 in methanol for 15 minutes.
For platelet endothelial cell adhesion molecule (PECAM-1, CD31) antigen and EGFR antigen, the sections were incubated overnight at room temperature with a polyclonal goat anti-PECAM-1 IgG (Santa Cruz Biotechnology, Santa Cruz, Calif.) diluted 1:800 in Antibody Diluent (Dako Ltd) or with a polyclonal rabbit anti-EGFR IgG (BioGenex, San Ramon, Calif.) diluted 1:50 in Antibody Diluent (Dako Ltd). Sections were incubated with Vectastain Elite ABC-peroxidase (Vector Laboratories) for 45 minutes at room temperature.
To detect apoptosis, the TUNEL TdT-FragEL™ DNA fragmentation detection kit (Oncogene Research Products, San Diego, Calif.) was used according to the manufacturer's recommendations. For all four antigens, Vector Nova Red (Vector Laboratories) was the final chromogen and haematoxylin the nuclear counterstain.

[4] = Chronic-dose plasma and tumor concentrations of erlotinib in tumor-bearing mice; format: in vivo, nu/nu athymic mice
Method: On day 28 post tumor implant, blood (from the retro-orbital sinus) and tumor samples were collected at 1 and 6 hours post dosing. […] Values are means±SD, n=3.
(§7) For single-dose pharmacokinetics (PK), blood samples from three mice per time point were collected by cardiac puncture at 5, 15, 30, 60 minutes and 2, 4, 8, 16, 24 hours post-dose. For chronically treated animals, blood samples from two or three mice per time point were collected via the retro-orbital sinus at 1 and 6 hours. Collection tubes contained ethylene diamine tetra-acetic acid (EDTA) as anticoagulant. Samples were stored at −70° C. […] PK parameters were estimated by non-compartmental analysis of the composite data, using the PK evaluation programme WinNonlin PRO® version 3.1 (Pharsight Inc).

[5] = Single-dose pharmacokinetics of erlotinib in non-tumor bearing mice; format: in vivo, female nu/nu athymic mice
Method: as §7
Three animals per time point were evaluated for PK data (FIG. 3).

[6] = erlotinib monotherapy, treated xenografts

Structure (SMILES): N.N.[Cl][Pt][Cl] [cisplatin]
- MTD ([1]; cisplatin every 4 days x3 i.v. in nude mice (Riccardi 2001)): 4 mg/kg
- MTD ([1]; cisplatin every 6 days x2 i.v. in nude mice (Perez-Soler 2001)): 4 mg/kg
- MTD ([1]; cisplatin every 6 days x3 i.p. in C57/B16 mice (van Moorsel 1999)): 6 mg/kg
- MTD ([2]; cisplatin every 6 days x3 i.p., athymic nude mice): 6 mg/kg
- Tumor growth inhibition (H460a NSCLC xenograft; cisplatin 1.5 mg/kg i.p. every 6 days): 42%
- Tumor growth inhibition (H460a NSCLC xenograft; cisplatin 6 mg/kg i.p. every 6 days): 81%
- Tumor growth inhibition (A549 NSCLC xenograft; cisplatin 1.5 mg/kg, non-significant): 30%
- Extent of partial regression (A549 NSCLC xenograft; cisplatin 6 mg/kg): 2%
- Number of partial regressions (A549 NSCLC xenograft; cisplatin 6 mg/kg): one
- Tumor growth inhibition (A549 NSCLC xenograft; cisplatin 6 mg/kg, day 47 post tumor implantation): 88%
- Primary microscopic kidney lesions ([3]; cisplatin alone and in combination, severity dose dependent): tubular necrosis and tubular basophilia

Structure (SMILES): C#Cc1cccc(Nc2ncnc3cc(OCCOC)c(OCCOC)cc23)c1 [erlotinib, [6,7-bis(2-methoxyethoxy)-4-quinazolin-4-yl]-(3-ethynylphenyl) amine]
- Correlation of tumor concentrations with plasma concentrations ([4]; H460a tumor-bearing mice): correlated well
- Dose dependence of exposure ([4]; ascending oral doses 6.3-150.0 mg/kg, tumor-bearing mice): dose-dependent and more than dose-proportional
- Tolerability ([2]; erlotinib 150 mg/kg for 3 weeks, previous efficacy studies (unpublished observation)): well tolerated
- Toxicity outcome ([2]; erlotinib 200 mg/kg group): marked weight loss and all were euthanized
- Toxicity outcome ([2]; erlotinib 400 mg/kg group): One mouse in the 400 mg/kg group died
- Tumor regressions (H460a NSCLC xenograft; erlotinib monotherapy dose response study): no partial or complete regressions
- Tumor growth inhibition (A549 NSCLC xenograft; erlotinib 25 mg/kg, day 47 post tumor implantation): 25%
- Extent of partial regression (A549 NSCLC xenograft; erlotinib 100 mg/kg): 2%
- Number of partial regressions (A549 NSCLC xenograft; erlotinib 100 mg/kg): one
- Tumor growth inhibition (A549 NSCLC xenograft; erlotinib 100 mg/kg, day 47 post tumor implantation): 93%
- Ki-67 proliferative index in tumor ([3]; erlotinib 1000 mg/kg (so in the source), both NSCLC xenograft tumor models): mild decrease
- Haematology and clinical chemistry parameters ([3]; erlotinib monotherapy): no changes
- Skin lesions (macroscopic) ([3]; erlotinib monotherapy (100 mg/kg/day for 21 days), transient): substantial reddening and crusting of the skin of the muzzle; also recorded: reddened and flaky
- Angiogenesis, microvascular density (MVD) via CD31 staining [3, 6]: no clear effect
- Frequency of apoptosis in tumor cells (TUNEL) [3, 6]: no significant difference
- Time of maximum plasma concentration post dose ([5]; 20 and 100 mg/kg single dose by gavage): 0.5 to 1.0 h
- Dose proportionality of exposure (AUC) ([5]; 20 vs 100 mg/kg single dose): dose-proportional
- Mean maximum plasma concentration ([5]; erlotinib 20 mg/kg single dose by gavage): ~9,100 ng/mL
- Mean maximum plasma concentration ([5]; erlotinib 100 mg/kg single dose by gavage): approximately 24,000 ng/mL

From patent US7951405B2 (priority 2004, dated 2011)
